Experimental data: ChEMBL document CHEMBL6103536, “Chemical Space Profiling of SARS-CoV-2 PLpro Using DNA-Encoded Focused Libraries” (ACS Med Chem Lett, 2024); call rule not given here

Target: Replicase polyprotein 1ab (Severe acute respiratory syndrome coronavirus 2, UniProt P0DTD1)
Assay: Inhibition of SARS Cov-2 papain-like protease extracted form Escherichia coli Rosetta (DE3) using fluorogenic substrate RLRGG-AMC assessed as inhibition rate by measuring fluorescent signal incubated for 30 mins

First: CCOC(=O)[C@@H]1CCN(Cc2ccc(-c3cccc([C@@H](C)NC(=O)c4cc(NC5CNC5)ccc4C)c3)s2)C1
Second: Cc1ccc(NC2CNC2)cc1C(=O)N[C@H](C)c1cccc(-c2ccc(CN3CC[C@@H](C(=O)O)C3)s2)c1
The IC50 of the first is 7.2-fold higher: 1940 nM for the first, 270 nM for the second. The second is the more potent here.

Going from `CC[C@@H](C)[C@@H](NC(=O)c1ccc(-c2cccc([C@@H](C)NC(=O)c3cc(N)ccc3C)c2)s1)C(=O)OC` to `COC(=O)[C@@H](CCC(=O)OC(C)(C)C)NCc1ccc(-c2cccc([C@@H](C)NC(=O)c3cc(N)ccc3C)c2)s1` (racemic), the IC50 rises from 2720 nM to 4710 nM (1.7-fold). The first is the more potent here.

Going from `COC(=O)Cc1ccc(CNc2ccc(C)c(C(=O)N[C@H](C)c3cccc4ccccc34)c2)cc1` to `Cc1ccc(NC(=O)c2ccc(Cl)s2)cc1C(=O)N[C@H](C)c1cccc2ccccc12`, the IC50 rises from 2910 nM to over 20000 nM.

Work on `CCOC(=O)CCCNCc1ccc(-c2cccc([C@@H](C)NC(=O)c3cc(NC4CNC4)ccc3C)c2)s1` yielded an IC50 of 250 nM.

Target: Replicase polyprotein 1ab (Severe acute respiratory syndrome coronavirus 2) (UniProt P0DTD1)
Assay: Inhibition of SARS Cov-2 papain-like protease extracted form Escherichia coli Rosetta (DE3) using fluorogenic substrate RLRGG-AMC assessed as inhibition rate by measuring fluorescent signal at 4 uM incubated for 30 mins relative to control

First: Cc1ccc(NC(=O)Oc2ccc([N+](=O)[O-])cc2)cc1C(=O)N[C@H](C)c1cccc2ccccc12
Second: COc1ccc([N+](=O)[O-])c(C(=O)Nc2ccc(C)c(C(=O)N[C@H](C)c3cccc4ccccc34)c2)c1
The inhibition of the first is lower: 27% for the first, 53% for the second.

First: Cc1ccc(NC(=O)c2cc(Br)cnc2Cl)cc1C(=O)N[C@H](C)c1cccc2ccccc12
Second: Cc1ccc(NC(=O)c2ccc(Cl)s2)cc1C(=O)N[C@H](C)c1cccc2ccccc12
The inhibition of the first is higher: 19% for the first, 13% for the second.

Going from `Cc1ccc(N)cc1C(=O)N[C@H](C)c1cccc2ccccc12` to `C[C@@H](NC(=O)c1cc(N)ccc1O)c1cccc2ccccc12`, the inhibition falls from 68% to 6%.

Compared with `Cc1ccc(NC(=O)c2ccnc(O)c2)cc1C(=O)N[C@H](C)c1cccc2ccccc12`, `COC(=O)Cc1ccc(CNc2ccc(C)c(C(=O)N[C@H](C)c3cccc4ccccc34)c2)cc1` is lower in inhibition: 74% for the first, 21% for the second.

First: Cc1ccc(N)cc1C(=O)N[C@H](C)c1cccc(-c2ccc(C=O)s2)c1
Second: CC[C@@H](C)[C@@H](NC(=O)c1ccc(-c2cccc([C@@H](C)NC(=O)c3cc(N)ccc3C)c2)s1)C(=O)OC
The inhibition of the first is lower: 30% for the first, 73% for the second.

`COC(=O)[C@@H](CCC(=O)OC(C)(C)C)NCc1ccc(-c2cccc([C@@H](C)NC(=O)c3cc(N)ccc3C)c2)s1` (racemic) was tested, and the inhibition was 81%.

In the case of `Cc1ccc(NC(=O)c2cccs2)cc1C(=O)N[C@H](C)c1cccc2ccccc12`, the inhibition is reported as “Active; Compound Showed Weak Inhibitory Effect”.
For `CCOC(=O)CCCNCc1ccc(-c2cccc([C@@H](C)NC(=O)c3cc(N)ccc3C)c2)s1`, the inhibition was “Active; Compound Showed Weak Inhibitory Effect”.
`Cc1ccc(NCc2ccc(CC(=O)O)cc2)cc1C(=O)N[C@H](C)c1cccc2ccccc12` was tested, and the inhibition was “Active; Compound Showed Weak Inhibitory Effect”.
With `Cc1ccc(NC(=O)c2cccnc2O)cc1C(=O)N[C@H](C)c1cccc2ccccc12` the inhibition was “Active; Compound Showed Weak Inhibitory Effect”.
For `Cc1ccc(NC(=O)c2cc(Br)cnc2O)cc1C(=O)N[C@H](C)c1cccc2ccccc12`, the inhibition was “Active; Compound Showed Weak Inhibitory Effect”.
